What was measured:
[1] = Inhibition of T7 bacteriophage fused Plasmodium falciparum CDPK1 at 10 uM by KINOMEscan analysis relative to control; details: condition cancer
[2] = molecular target: Serine/threonine-protein kinase Sgk3 (Homo sapiens) (UniProt Q96BR1); experiment: Inhibition of T7 bacteriophage fused human SGK3 at 10 uM by KINOMEscan analysis relative to control
[3] = molecular target: Serine/threonine-protein kinase SIK1 (Homo sapiens) (UniProt P57059); experiment: Inhibition of T7 bacteriophage fused human SIK at 10 uM by KINOMEscan analysis relative to control
[4] = molecular target: Serine/threonine-protein kinase SIK2 (Homo sapiens) (UniProt Q9H0K1); experiment: Inhibition of T7 bacteriophage fused human SIK2 at 10 uM by KINOMEscan analysis relative to control
[5] = molecular target: NUAK family SNF1-like kinase 2 (Homo sapiens) (UniProt Q9H093); experiment: Inhibition of T7 bacteriophage fused human SNARK at 10 uM by KINOMEscan analysis relative to control
[6] = molecular target: SNF-related serine/threonine-protein kinase (Homo sapiens) (UniProt Q9NRH2); experiment: Inhibition of T7 bacteriophage fused human SNRK at 10 uM by KINOMEscan analysis relative to control
[7] = molecular target: Proto-oncogene tyrosine-protein kinase Src (Homo sapiens) (UniProt P12931); experiment: Inhibition of T7 bacteriophage fused human SRC at 10 uM by KINOMEscan analysis relative to control
[8] = molecular target: Tyrosine-protein kinase Srms (Homo sapiens) (UniProt Q9H3Y6); experiment: Inhibition of T7 bacteriophage fused human SRMS at 10 uM by KINOMEscan analysis relative to control
[9] = molecular target: SRSF protein kinase 3 (Homo sapiens) (UniProt Q9UPE1); experiment: Inhibition of T7 bacteriophage fused human SRPK3 at 10 uM by KINOMEscan analysis relative to control
[10] = molecular target: Serine/threonine-protein kinase 35 (Homo sapiens) (UniProt Q8TDR2); experiment: Inhibition of T7 bacteriophage fused human STK35 at 10 uM by KINOMEscan analysis relative to control
[11] = molecular target: Serine/threonine-protein kinase tousled-like 2 (Homo sapiens) (UniProt Q86UE8); experiment: Inhibition of T7 bacteriophage fused human TLK2 at 10 uM by KINOMEscan analysis relative to control
[12] = molecular target: High affinity nerve growth factor receptor (Homo sapiens) (UniProt P04629); experiment: Inhibition of T7 bacteriophage fused human TRKA at 10 uM by KINOMEscan analysis relative to control
[13] = molecular target: BDNF/NT-3 growth factors receptor (Homo sapiens) (UniProt Q16620); experiment: Inhibition of T7 bacteriophage fused human TRKB at 10 uM by KINOMEscan analysis relative to control
[14] = molecular target: NT-3 growth factor receptor (Homo sapiens) (UniProt Q16288); experiment: Inhibition of T7 bacteriophage fused human TRKC at 10 uM by KINOMEscan analysis relative to control
[15] = molecular target: Transient receptor potential cation channel subfamily M member 6 (Homo sapiens) (UniProt Q9BX84); experiment: Inhibition of T7 bacteriophage fused human TRPM6 at 10 uM by KINOMEscan analysis relative to control
[16] = molecular target: Testis-specific serine/threonine-protein kinase 1 (Homo sapiens) (UniProt Q9BXA7); experiment: Inhibition of T7 bacteriophage fused human TSSK1B at 10 uM by KINOMEscan analysis relative to control
[17] = molecular target: T1, Dual specificity protein kinase TTK (Homo sapiens) (UniProt P33981); experiment: Inhibition of T7 bacteriophage fused human TTK at 10 uM by KINOMEscan analysis relative to control
T1 sequence (whole entry): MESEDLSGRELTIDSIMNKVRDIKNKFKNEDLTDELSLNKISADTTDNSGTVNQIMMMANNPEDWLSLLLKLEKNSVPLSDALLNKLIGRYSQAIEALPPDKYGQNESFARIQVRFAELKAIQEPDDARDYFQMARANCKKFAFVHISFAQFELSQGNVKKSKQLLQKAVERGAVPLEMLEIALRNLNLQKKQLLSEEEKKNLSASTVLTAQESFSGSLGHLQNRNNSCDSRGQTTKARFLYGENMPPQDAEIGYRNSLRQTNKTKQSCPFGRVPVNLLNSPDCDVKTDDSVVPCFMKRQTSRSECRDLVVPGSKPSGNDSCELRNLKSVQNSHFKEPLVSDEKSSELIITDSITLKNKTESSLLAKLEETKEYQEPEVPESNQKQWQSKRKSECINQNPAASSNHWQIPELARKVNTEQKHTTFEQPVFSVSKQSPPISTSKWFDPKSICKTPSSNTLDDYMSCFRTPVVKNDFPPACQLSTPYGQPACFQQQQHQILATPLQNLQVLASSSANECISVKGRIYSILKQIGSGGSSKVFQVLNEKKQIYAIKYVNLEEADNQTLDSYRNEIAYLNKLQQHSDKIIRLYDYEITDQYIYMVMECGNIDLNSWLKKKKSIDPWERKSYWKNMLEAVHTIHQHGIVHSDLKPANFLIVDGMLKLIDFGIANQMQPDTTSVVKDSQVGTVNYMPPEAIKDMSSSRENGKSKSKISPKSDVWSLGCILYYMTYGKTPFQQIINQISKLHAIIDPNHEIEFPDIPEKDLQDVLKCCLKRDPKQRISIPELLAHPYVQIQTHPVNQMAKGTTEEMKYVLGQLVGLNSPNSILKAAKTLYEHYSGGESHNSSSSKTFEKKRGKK

[18] = molecular target: Tyrosine-protein kinase TXK (Homo sapiens) (UniProt P42681); experiment: Inhibition of T7 bacteriophage fused human TXK at 10 uM by KINOMEscan analysis relative to control
[19] = molecular target: Non-receptor tyrosine-protein kinase TYK2 (Homo sapiens) (UniProt P29597); experiment: Inhibition of T7 bacteriophage fused human TYK2 JH1 catalytic domain at 10 uM by KINOMEscan analysis relative to control
[20] = molecular target: Serine/threonine-protein kinase VRK2 (Homo sapiens) (UniProt Q86Y07); experiment: Inhibition of T7 bacteriophage fused human VRK2 at 10 uM by KINOMEscan analysis relative to control
[21] = molecular target: Wee1-like protein kinase (Homo sapiens) (UniProt P30291); experiment: Inhibition of T7 bacteriophage fused human WEE1 at 10 uM by KINOMEscan analysis relative to control
[22] = molecular target: Tyrosine-protein kinase Yes (Homo sapiens) (UniProt P07947); experiment: Inhibition of T7 bacteriophage fused human YES at 10 uM by KINOMEscan analysis relative to control
[23] = molecular target: Peripheral plasma membrane protein CASK (Homo sapiens) (UniProt O14936); experiment: Inhibition of T7 bacteriophage fused human CASK at 10 uM by KINOMEscan analysis relative to control
[24] = molecular target: Mitogen-activated protein kinase kinase kinase 12 (Homo sapiens) (UniProt Q12852); experiment: Inhibition of T7 bacteriophage fused human DLK at 10 uM by KINOMEscan analysis relative to control; values are per cent of control
Sequence of Mitogen-activated protein kinase kinase kinase 12 (Homo sapiens) (Q12852 whole entry, looked up, the tested form may be a part): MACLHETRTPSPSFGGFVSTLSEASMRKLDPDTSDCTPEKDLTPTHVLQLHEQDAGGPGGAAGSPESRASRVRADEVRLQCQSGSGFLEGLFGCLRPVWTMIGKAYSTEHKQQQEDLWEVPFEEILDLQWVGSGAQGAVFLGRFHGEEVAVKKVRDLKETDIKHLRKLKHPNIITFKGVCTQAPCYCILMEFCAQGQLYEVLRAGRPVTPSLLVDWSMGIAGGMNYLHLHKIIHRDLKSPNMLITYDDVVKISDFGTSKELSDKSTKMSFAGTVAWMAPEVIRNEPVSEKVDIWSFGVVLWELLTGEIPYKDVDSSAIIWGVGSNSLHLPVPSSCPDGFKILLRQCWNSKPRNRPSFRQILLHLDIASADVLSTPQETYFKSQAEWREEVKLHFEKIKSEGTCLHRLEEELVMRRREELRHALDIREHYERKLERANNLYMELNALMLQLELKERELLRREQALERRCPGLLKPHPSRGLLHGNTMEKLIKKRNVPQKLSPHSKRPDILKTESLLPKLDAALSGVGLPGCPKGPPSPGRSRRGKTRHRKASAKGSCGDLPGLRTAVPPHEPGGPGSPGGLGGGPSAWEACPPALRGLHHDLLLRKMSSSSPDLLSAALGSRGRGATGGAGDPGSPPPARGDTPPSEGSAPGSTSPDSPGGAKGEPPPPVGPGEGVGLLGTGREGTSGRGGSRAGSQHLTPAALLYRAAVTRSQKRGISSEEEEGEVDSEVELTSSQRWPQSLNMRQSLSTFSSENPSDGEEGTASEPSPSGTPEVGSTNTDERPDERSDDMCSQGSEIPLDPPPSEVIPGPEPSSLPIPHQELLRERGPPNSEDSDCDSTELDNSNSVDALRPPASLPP

Sequence of SNF-related serine/threonine-protein kinase (Homo sapiens) (Q9NRH2 whole entry, the tested form may be a part): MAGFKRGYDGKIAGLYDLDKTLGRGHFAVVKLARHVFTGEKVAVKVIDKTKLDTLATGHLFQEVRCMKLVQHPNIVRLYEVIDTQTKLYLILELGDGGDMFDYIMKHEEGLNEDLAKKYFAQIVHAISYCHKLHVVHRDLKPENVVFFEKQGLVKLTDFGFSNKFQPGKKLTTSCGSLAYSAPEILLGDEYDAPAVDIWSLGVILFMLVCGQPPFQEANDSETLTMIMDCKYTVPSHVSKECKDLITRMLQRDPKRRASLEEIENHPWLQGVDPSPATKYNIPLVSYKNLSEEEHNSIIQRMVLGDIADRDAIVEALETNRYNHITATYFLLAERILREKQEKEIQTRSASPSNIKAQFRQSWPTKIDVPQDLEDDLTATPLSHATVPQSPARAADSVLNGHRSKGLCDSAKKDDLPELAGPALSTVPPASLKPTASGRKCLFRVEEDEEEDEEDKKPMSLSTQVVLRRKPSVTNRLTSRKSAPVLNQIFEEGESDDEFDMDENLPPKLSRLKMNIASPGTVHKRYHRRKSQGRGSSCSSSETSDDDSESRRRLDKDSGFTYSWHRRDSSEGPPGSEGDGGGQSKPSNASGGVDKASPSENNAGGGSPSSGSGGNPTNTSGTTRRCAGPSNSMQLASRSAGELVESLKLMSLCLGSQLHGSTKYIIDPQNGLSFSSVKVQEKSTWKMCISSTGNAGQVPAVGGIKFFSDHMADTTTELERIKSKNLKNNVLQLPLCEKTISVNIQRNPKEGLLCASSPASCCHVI
Sequence of Tyrosine-protein kinase Srms (Homo sapiens) (Q9H3Y6 whole entry, the tested form may be a part): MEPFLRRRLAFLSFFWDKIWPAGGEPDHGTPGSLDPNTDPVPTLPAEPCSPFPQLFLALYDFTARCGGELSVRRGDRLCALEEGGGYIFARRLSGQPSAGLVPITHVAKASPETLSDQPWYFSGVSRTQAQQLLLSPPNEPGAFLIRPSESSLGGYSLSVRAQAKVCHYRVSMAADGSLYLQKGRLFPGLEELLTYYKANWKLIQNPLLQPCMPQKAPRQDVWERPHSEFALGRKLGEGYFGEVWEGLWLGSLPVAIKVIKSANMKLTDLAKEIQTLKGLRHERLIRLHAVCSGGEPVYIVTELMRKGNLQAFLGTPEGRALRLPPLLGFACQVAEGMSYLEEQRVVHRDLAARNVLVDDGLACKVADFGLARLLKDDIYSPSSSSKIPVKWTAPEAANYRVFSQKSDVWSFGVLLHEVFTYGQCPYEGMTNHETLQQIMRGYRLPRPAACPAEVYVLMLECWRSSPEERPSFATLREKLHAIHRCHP
Sequence of Wee1-like protein kinase (Homo sapiens) (P30291 whole entry, looked up, the tested form may be a part): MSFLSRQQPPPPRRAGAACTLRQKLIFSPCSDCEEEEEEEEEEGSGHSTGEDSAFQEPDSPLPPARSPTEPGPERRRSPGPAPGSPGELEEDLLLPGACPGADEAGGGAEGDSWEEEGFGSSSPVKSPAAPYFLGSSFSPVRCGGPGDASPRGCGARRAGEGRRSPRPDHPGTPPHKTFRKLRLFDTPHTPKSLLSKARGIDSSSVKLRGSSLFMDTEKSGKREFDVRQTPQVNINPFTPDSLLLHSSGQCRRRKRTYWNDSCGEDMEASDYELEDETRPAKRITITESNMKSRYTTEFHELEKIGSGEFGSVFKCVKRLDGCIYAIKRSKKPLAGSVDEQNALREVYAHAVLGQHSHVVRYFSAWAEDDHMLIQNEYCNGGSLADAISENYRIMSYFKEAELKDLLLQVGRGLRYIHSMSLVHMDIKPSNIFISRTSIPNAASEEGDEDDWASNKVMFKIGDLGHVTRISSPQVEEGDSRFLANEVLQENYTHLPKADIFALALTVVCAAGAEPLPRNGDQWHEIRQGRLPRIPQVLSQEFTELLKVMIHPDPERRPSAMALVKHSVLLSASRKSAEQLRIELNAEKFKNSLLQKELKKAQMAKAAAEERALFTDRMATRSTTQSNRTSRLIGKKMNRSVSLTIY
Sequence of Transient receptor potential cation channel subfamily M member 6 (Homo sapiens) (Q9BX84 whole entry, the tested form may be a part): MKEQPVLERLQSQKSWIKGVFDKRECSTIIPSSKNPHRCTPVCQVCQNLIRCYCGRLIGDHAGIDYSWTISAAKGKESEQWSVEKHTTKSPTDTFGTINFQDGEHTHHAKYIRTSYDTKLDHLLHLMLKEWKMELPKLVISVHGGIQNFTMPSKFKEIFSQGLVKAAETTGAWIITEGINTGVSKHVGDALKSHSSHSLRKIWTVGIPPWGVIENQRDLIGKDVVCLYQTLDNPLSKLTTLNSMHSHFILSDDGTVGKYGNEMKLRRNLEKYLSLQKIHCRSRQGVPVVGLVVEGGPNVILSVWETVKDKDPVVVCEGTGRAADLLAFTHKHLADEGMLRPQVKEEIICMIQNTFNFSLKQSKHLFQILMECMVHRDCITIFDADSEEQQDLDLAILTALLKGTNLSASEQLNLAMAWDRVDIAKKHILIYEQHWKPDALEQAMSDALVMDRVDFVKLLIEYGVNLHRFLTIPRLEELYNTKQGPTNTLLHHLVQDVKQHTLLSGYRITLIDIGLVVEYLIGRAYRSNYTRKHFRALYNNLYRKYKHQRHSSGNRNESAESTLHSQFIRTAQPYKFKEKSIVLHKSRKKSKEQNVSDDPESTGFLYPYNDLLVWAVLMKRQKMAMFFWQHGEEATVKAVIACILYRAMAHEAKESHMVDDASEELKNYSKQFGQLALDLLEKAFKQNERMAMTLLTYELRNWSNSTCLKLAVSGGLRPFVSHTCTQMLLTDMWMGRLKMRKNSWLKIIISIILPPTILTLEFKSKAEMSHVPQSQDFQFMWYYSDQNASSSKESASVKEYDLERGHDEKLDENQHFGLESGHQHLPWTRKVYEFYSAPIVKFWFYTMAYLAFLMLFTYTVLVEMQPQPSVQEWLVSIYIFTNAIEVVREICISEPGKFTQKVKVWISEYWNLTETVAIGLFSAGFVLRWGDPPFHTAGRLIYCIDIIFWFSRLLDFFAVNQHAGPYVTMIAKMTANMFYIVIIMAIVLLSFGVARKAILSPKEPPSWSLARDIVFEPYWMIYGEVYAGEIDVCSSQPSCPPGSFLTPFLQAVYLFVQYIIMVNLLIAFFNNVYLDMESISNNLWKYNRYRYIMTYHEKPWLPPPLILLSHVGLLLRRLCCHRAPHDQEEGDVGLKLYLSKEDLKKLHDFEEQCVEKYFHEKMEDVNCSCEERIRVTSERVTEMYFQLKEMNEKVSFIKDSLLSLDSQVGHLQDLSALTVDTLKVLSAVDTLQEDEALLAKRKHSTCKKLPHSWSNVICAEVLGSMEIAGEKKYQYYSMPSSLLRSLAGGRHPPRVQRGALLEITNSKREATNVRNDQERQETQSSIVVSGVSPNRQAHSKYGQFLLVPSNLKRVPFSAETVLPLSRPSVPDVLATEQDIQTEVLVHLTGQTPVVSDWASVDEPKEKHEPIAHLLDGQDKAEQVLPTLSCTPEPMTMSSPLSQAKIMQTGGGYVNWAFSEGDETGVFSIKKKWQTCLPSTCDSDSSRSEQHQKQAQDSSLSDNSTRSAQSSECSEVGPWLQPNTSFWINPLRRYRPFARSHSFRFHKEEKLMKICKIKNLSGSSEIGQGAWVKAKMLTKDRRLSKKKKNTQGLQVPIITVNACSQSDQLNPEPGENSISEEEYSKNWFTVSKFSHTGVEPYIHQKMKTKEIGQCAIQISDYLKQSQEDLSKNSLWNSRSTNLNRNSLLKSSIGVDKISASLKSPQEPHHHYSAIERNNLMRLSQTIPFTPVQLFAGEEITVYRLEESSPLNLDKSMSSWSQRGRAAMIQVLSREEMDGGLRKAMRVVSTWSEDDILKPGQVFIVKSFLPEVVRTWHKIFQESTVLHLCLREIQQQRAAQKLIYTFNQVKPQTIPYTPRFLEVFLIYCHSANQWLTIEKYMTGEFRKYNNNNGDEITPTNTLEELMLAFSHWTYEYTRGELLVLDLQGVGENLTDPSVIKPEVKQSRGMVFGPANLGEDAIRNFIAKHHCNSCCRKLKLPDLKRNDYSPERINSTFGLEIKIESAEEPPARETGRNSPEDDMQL

Row | Compound | inhibition at 10 µM [1] | inhibition [2] | inhibition [3] | inhibition [4] | inhibition [5] | inhibition [6] | inhibition [7] | inhibition [8] | inhibition [9] | inhibition [10] | inhibition [11] | inhibition [12] | inhibition [13] | inhibition [14] | inhibition [15] | inhibition [16] | inhibition [17] | inhibition [18] | inhibition [19] | inhibition [20] | also measured
1 | COc1cc(N2CCC(N3CCN(C)CC3)CC2)ccc1Nc1ncc2c(n1)N(C)c1ccccc1C(=O)N2C | 100% | 95% | 77% | 98% | 47% | 94% | 100% | 77% | 72% | 100% | 99% | 69% | 100% | 100% | 100% | 60% | 28% | 91% | 52% | 99% | inhibition [21]: 100%; inhibition [22]: 100%; inhibition [23]: 85%; residual activity [24]: 81%
2 | COc1cc(C(=O)N2CCC(N3CCN(C)CC3)CC2)ccc1Nc1ncc2c(n1)N(C1CCCC1)c1ccccc1C(=O)N2C |  | 100% |  |  | 100% |  |  | 100% |  | 100% |  |  |  | 100% | 100% |  |  |  | 100% | 100% | inhibition [23]: 100%
3 | CCOc1cc(C(=O)N2CCC(N3CCN(C)CC3)CC2)ccc1Nc1ncc2c(n1)N(C1CCCC1)c1ccccc1C(=O)N2C | 100% |  | 100% | 100% |  | 52% | 100% |  | 100% |  | 100% | 100% | 100% |  |  | 100% | 49% | 100% |  |  | inhibition [21]: 100%; inhibition [22]: 100%; residual activity [24]: 100%
